Results on eleven compounds are retold here after ChEMBL document CHEMBL1201862, “PubChem BioAssay data set” (2004).

SMILES strings stand for the structures.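 Dose response: 5 concentrations. Exposure: 48 h. Format: 96-well plates. Endpoint: linear interpolation; highest concentration if not reached. At the GI50, growth is halved.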 The source made the active and inactive calls. No stated cut-off is given here; in the data, active = GI50 up to about 1.1 µM and inactive = higher. Where only a bound is given, the exact number is not on record here.

Test systems include HT-29; HL-60; SK-MEL-2; TK-10; MCF7; OVCAR-3; Malme-3M; SNB-75; HOP-92; SF-539; HCT-116; Hs-578T; K562; SK-MEL-28; UO-31; SF-295; SF-268; OVCAR-4; IGROV-1.
What all share (assay): NCI tumour cell line growth inhibition, 48 h

Turning to `CN(C)CCCNc1c2c(=O)n(C)c(=O)nc-2n(C)c2ccccc12`, the GI50 in the assay on HT-29 is 4.26 µM (inactive); in the assay with HL-60, 0.966 µM (active); in the assay with SK-MEL-2, 2.52 µM (inactive); with TK-10, 5.26 µM (inactive); with MCF7, 3.82 µM (inactive); in the assay with OVCAR-3, 1.25 µM (inactive). The GI50 in the assay on Malme-3M is 3.11 µM (inactive); in the assay on SNB-75, 5.15 µM (inactive); with HOP-92 it was 17 µM (inactive); with SF-539, 6.73 µM (inactive); in the assay with HCT-116, 3.69 µM (inactive); with Hs-578T, 10.1 µM (inactive). Moreover, the GI50 with K562 is 4.8 µM (inactive); in the assay on SK-MEL-28, 10.4 µM (inactive); in the assay with UO-31, 4.51 µM (inactive); in the assay with SF-295, 6.43 µM (inactive); in the assay on SF-268, 5.38 µM (inactive); with OVCAR-4, 4.72 µM (inactive). Also, the GI50 with IGROV-1 is 15.6 µM (inactive).
As for `COc1cc(OCc2nc3ccccc3n3cccc23)cc(OC)c1OC`, the GI50 in the assay with HT-29 is 28.1 µM (inactive); in the assay on HL-60 it was 9.35 µM (inactive); in the assay on SK-MEL-2, > 100 µM (inactive); in the assay on TK-10 it was 32.7 µM (inactive); in the assay on MCF7, 3.61 µM (inactive); in the assay on OVCAR-3, 15 µM (inactive). For the same compound, the GI50 in the assay with Malme-3M is 20.6 µM (inactive); in the assay on SNB-75, > 93.5 µM (inactive); in the assay on HOP-92, 10 µM (inactive); in the assay with SF-539, 24.8 µM (inactive); in the assay on HCT-116, 17.5 µM (inactive); in the assay with Hs-578T, 52.6 µM (inactive). Besides, the GI50 was 3.86 µM (inactive) in the assay on K562; 22.1 µM (inactive) in the assay on SK-MEL-28; 28.1 µM (inactive) in the assay with UO-31; 11.3 µM (inactive) with SF-295; 41.9 µM (inactive) in the assay with SF-268; 10.8 µM (inactive) in the assay with OVCAR-4. In addition, the GI50 in the assay with IGROV-1 was 20.3 µM (inactive).
As for `CCOC(=O)C(O)(C(=O)OCC)c1cc(C(C)(C)C)c(O)c(C(C)(C)C)c1`, the GI50 in the assay on HT-29 was 28.1 µM (inactive); in the assay with HL-60 it was 25.5 µM (inactive); in the assay on SK-MEL-2, 27.7 µM (inactive); in the assay on TK-10 it was 34.5 µM (inactive); in the assay on MCF7, 40.4 µM (inactive); in the assay with OVCAR-3, 76.6 µM (inactive). In addition, the GI50 in the assay with Malme-3M is 42.2 µM (inactive); in the assay on SNB-75 it was 27.4 µM (inactive); with HOP-92 it was 26.9 µM (inactive); with SF-539, 28.4 µM (inactive); in the assay on HCT-116 it was 35.1 µM (inactive); in the assay with Hs-578T it was 32.7 µM (inactive). Moreover, the GI50 with K562 was 33.6 µM (inactive); with SK-MEL-28, 31.8 µM (inactive); in the assay on UO-31 it was 52.2 µM (inactive); in the assay on SF-295, 22.5 µM (inactive); with SF-268, 40.7 µM (inactive); with OVCAR-4, > 100 µM (inactive). The GI50 in the assay on IGROV-1 is 45 µM (inactive).
With `O=C1c2ccccc2-n2c1nc1ccccc1c2=O` [TRYPTANTHRIN], the GI50 is 14.8 µM (inactive) in the assay with HT-29; 3.71 µM (inactive) with HL-60; 10.1 µM (inactive) with SK-MEL-2; > 43.3 µM (inactive) in the assay on TK-10; 7.19 µM (inactive) in the assay with MCF7; 4.54 µM (inactive) with OVCAR-3. Moreover, the GI50 in the assay on Malme-3M was 13.4 µM (inactive); with SNB-75, 30.8 µM (inactive); in the assay with HOP-92, 44.5 µM (inactive); in the assay on SF-539 it was 20.7 µM (inactive); in the assay on HCT-116, 5.86 µM (inactive); in the assay on Hs-578T it was 17.1 µM (inactive). Further, the GI50 in the assay with K562 was 3.18 µM (inactive); in the assay on SK-MEL-28 it was 15.8 µM (inactive); in the assay with UO-31, 5.06 µM (inactive); in the assay on SF-295 it was 4.29 µM (inactive); with SF-268, 19.9 µM (inactive); in the assay on OVCAR-4, 19.1 µM (inactive). Further, the GI50 in the assay with IGROV-1 was 23 µM (inactive).
In the case of `Clc1ccc(Cc2nc3ccccc3o2)cc1`, the GI50 was 40.2 µM (inactive) in the assay on HT-29; 40.2 µM (inactive) in the assay with HL-60; > 100 µM (inactive) with SK-MEL-2; > 100 µM (inactive) in the assay with TK-10; 51.4 µM (inactive) in the assay on MCF7; 52.8 µM (inactive) in the assay with OVCAR-3. The GI50 in the assay with Malme-3M is > 100 µM (inactive); in the assay on SNB-75, 20 µM (inactive); with HOP-92, > 100 µM (inactive); with SF-539, > 100 µM (inactive); in the assay with HCT-116, 66.7 µM (inactive); with Hs-578T, > 100 µM (inactive). Moreover, the GI50 was 50.7 µM (inactive) in the assay with K562; > 100 µM (inactive) in the assay with SK-MEL-28; 67.6 µM (inactive) in the assay on UO-31; 57.8 µM (inactive) in the assay on SF-295; > 100 µM (inactive) with SF-268; 48.2 µM (inactive) in the assay with OVCAR-4. The GI50 in the assay with IGROV-1 was > 100 µM (inactive).
`O=c1ssc(Cl)c1Cl`: the GI50 with HT-29 is > 10 µM (inactive); with HL-60, 2.47 µM (inactive); in the assay with SK-MEL-2, > 10 µM (inactive); in the assay with TK-10, > 10 µM (inactive); in the assay on MCF7 it was > 7.78 µM (inactive); with OVCAR-3, > 10 µM (inactive). Also, the GI50 in the assay on Malme-3M is > 6.11 µM (inactive); in the assay on SNB-75, > 10 µM (inactive); in the assay on HOP-92, > 10 µM (inactive); with SF-539 it was > 10 µM (inactive); with HCT-116 it was > 5.98 µM (inactive); in the assay with Hs-578T, > 10 µM (inactive). The GI50 with K562 was 3.23 µM (inactive); in the assay on SK-MEL-28, > 10 µM (inactive); in the assay with UO-31 it was > 4.93 µM (inactive); in the assay with SF-295, > 10 µM (inactive); in the assay with SF-268, > 10 µM (inactive); in the assay with OVCAR-4 it was > 5.6 µM (inactive). The GI50 in the assay on IGROV-1 was > 10 µM (inactive).
Regarding `COc1ccc(N2C(=O)CC(c3c[nH]c4ncccc34)C2=O)cc1` (configuration not stated), the GI50 in the assay on HT-29 is 19.8 µM (inactive); in the assay with HL-60, 11.5 µM (inactive); in the assay with SK-MEL-2, 36.1 µM (inactive); in the assay on TK-10 it was 14.2 µM (inactive); with MCF7, 27.5 µM (inactive); in the assay with OVCAR-3, 20.7 µM (inactive). For the same compound, the GI50 in the assay with Malme-3M was 22 µM (inactive); in the assay with SNB-75 it was > 100 µM (inactive); with HOP-92 it was 19.7 µM (inactive); in the assay on SF-539, > 47.2 µM (inactive); in the assay on HCT-116, 22.5 µM (inactive); with Hs-578T, > 100 µM (inactive). The GI50 in the assay with K562 was 8.09 µM (inactive); with SK-MEL-28, 29 µM (inactive); with UO-31, 32.4 µM (inactive); in the assay on SF-295, > 100 µM (inactive); in the assay with SF-268 it was > 100 µM (inactive); in the assay with OVCAR-4, 22.8 µM (inactive). Besides, the GI50 with IGROV-1 is 21.3 µM (inactive).
For the compound `O=C1c2cccc3cc4ccccc4c(c23)C(=O)N1CCCNCCNCCCN1C(=O)c2cccc3cc4ccccc4c(c23)C1=O`, the GI50 with HT-29 was 0.0104 µM (active); with HL-60 it was < 0.0171 µM (active); in the assay on SK-MEL-2 it was 0.338 µM (active); in the assay on TK-10 it was 1 µM (active); with MCF7, 0.0191 µM (active); in the assay with OVCAR-3 it was 0.353 µM (active). Further, the GI50 with Malme-3M is 0.211 µM (active); in the assay with SNB-75 it was 0.0263 µM (active); in the assay with HOP-92 it was 1 µM (active); in the assay on SF-539, 0.142 µM (active); in the assay with HCT-116, < 0.0191 µM (active); with Hs-578T, 0.0635 µM (active). Moreover, the GI50 is < 0.01 µM (active) with K562; 0.239 µM (active) in the assay on SK-MEL-28; 0.33 µM (active) in the assay with UO-31; 0.0182 µM (active) in the assay with SF-295; 0.196 µM (active) with SF-268; 0.129 µM (active) in the assay on OVCAR-4. In addition, in the assay on IGROV-1, the GI50 was 0.0139 µM (active).
As to `C=CCOc1cc(NC(=S)c2ccoc2C)ccc1OC`, the GI50 in the assay with HT-29, in the assay with HL-60, in the assay on SK-MEL-2, with MCF7, in the assay with OVCAR-3 and in the assay on Malme-3M was > 100 µM (inactive) throughout. Further, the GI50 with SNB-75 is 24.1 µM (inactive); with HOP-92, 27.9 µM (inactive); in the assay on SF-539 it was > 100 µM (inactive); in the assay on HCT-116, > 100 µM (inactive); in the assay with Hs-578T, > 100 µM (inactive); in the assay on K562, > 100 µM (inactive). For the same compound, the GI50 in the assay on SK-MEL-28, in the assay with UO-31, in the assay on SF-295, in the assay with SF-268, in the assay with OVCAR-4 and in the assay with IGROV-1 was > 100 µM (inactive) throughout.
As to `O=C1c2ccccc2-c2c1c1ccccc1c(=O)n2-c1cccnc1`, the GI50 with HT-29 is > 63.7 µM (inactive); in the assay with HL-60 it was > 10 µM (inactive); with SK-MEL-2 it was > 100 µM (inactive); in the assay with TK-10, > 62.1 µM (inactive); with MCF7 it was 22.5 µM (inactive); in the assay on OVCAR-3, > 71.3 µM (inactive). Also, the GI50 was > 95.3 µM (inactive) in the assay on Malme-3M; 49.1 µM (inactive) with SNB-75; 8.17 µM (inactive) with HOP-92; 21.3 µM (inactive) with SF-539; 27.3 µM (inactive) in the assay with HCT-116; 37 µM (inactive) with Hs-578T. The GI50 in the assay with K562 is > 60.3 µM (inactive); in the assay on SK-MEL-28 it was > 100 µM (inactive); in the assay with UO-31, > 48.8 µM (inactive); in the assay with SF-295 it was 27 µM (inactive); in the assay with SF-268, 29.5 µM (inactive); in the assay with OVCAR-4, > 49.3 µM (inactive). Besides, the GI50 in the assay with IGROV-1 is 34.2 µM (inactive).
For the compound `COc1cccc(CCNc2c(C#N)c3n(c4ccccc4[n+]3C)c3ncccc23)c1`, the GI50 in the assay with HT-29 is 1.41 µM (inactive); with HL-60 it was 1.79 µM (inactive); with SK-MEL-2 it was 21.4 µM (inactive); with TK-10 it was 21.2 µM (inactive); with MCF7 it was 1.52 µM (inactive); in the assay with OVCAR-3, 19.6 µM (inactive). The GI50 in the assay on Malme-3M is 17.5 µM (inactive); with SNB-75, 5.96 µM (inactive); in the assay on HOP-92, 27.7 µM (inactive); in the assay with SF-539 it was 1.58 µM (inactive); in the assay on HCT-116, 1.77 µM (inactive); in the assay on Hs-578T, 7.31 µM (inactive). Further, the GI50 in the assay with K562 is 2.39 µM (inactive); in the assay on SK-MEL-28, 20.2 µM (inactive); in the assay on UO-31 it was 4.53 µM (inactive); with SF-295 it was 1.69 µM (inactive); in the assay with SF-268, 16.4 µM (inactive); in the assay on OVCAR-4, 2.04 µM (inactive).
